Measurements: publication PMC10298626 (International Journal of Molecular Sciences, 2023)
Marks after values point to notes of the source that are not given here.

What was measured:
[1] = in vitro; type: cell-based; settings: mouse, RAW264.7 cells, then LPS (500 ng/mL) 20 h, read-out: Cell viability, Average (%); for viability at 22 h, 20 μM: 20 μM for 2 h; for viability at 22 h, 40 μM: 40 μM for 2 h; for viability at 22 h, 80 μM: 80 μM for 2 h
Procedure: To investigate the anti-inflammatory activity of coumarin derivatives, cell viability was analyzed by treating RAW264.7 cells with 23 types of coumarin derivatives at concentrations of 20, 40, and 80 μM for 2 h and with LPS for 20 h.
Mouse macrophage RAW264.7 cells were purchased from the Korea Cell Line Bank (Seoul, Republic of Korea) and cultured in Dulbecco’s Modified Eagle Medium (Corning, NY, USA) containing 10% fetal bovine serum and 1% penicillin/streptomycin at 37 °C and 5% CO2. The medium was changed every 2 days and subcultured when the cells grew > 80%.
EZ-Cytox cell viability assay kit (Dogen, Suwon, Republic of Korea) was used to measure cell viability according to the manufacturer’s instructions. RAW264.7 cells were seeded into a 96-well plate (1 × 10^5 cells/well) and treated with coumarin derivatives at concentrations of 20, 40, and 80 μM. After 2 h, the cells were treated with LPS (500 ng/mL) and cultured for 24 h in a 37 °C, 5% CO2 incubator. The culture supernatant was treated with 10% EZ-Cytox reagent, and a microplate reader was used to measure the absorbance at 450 nm.

[2] = test system: LPS-stimulated RAW264.7 cells; assay: NO production (Griess reagent) in LPS-stimulated RAW264.7 cells; type: cell-based, Mouse; settings: for NO production, Average / NO production, Average (μM): then LPS (500 ng/mL) 20 h, LPS alone 25.9, control 3.1; for Anti-inflammatory effect (inhibition of NO secretion), in words: 20, 40, and 80 μM, compared with LPS-only treatment
Procedure: A high concentration of NO promotes the synthesis of inflammatory mediators, leading to an inflammatory response, and has been reported to be a cause of various immune diseases. Therefore, this study was conducted to investigate the effect of coumarin derivatives on the production of NO induced by LPS stimulation in RAW264.7 cells. The cells were treated with coumarin derivatives at concentrations of 20, 40, and 80 μM for 2 h. Then, the cells were treated with LPS. After 20 h, the culture supernatant was recovered, and the amount of NO was measured. […] The anti-inflammatory activity of these derivatives depended on the position of the substituted group rather than the electron density of the substituted group.
The Griess reagent was used to measure NO production. RAW264.7 cells were seeded into a 96-well plate and cultured for 24 h. The cells were treated with 20, 40, and 80 μM of coumarin derivatives, cultured for 2 h, and then cultured with LPS (500 ng/mL) for 20 h. The same amount of cell supernatant and Griess reagent were used for the reaction, and absorbance was measured at 540 nm.

SMILES	viability at 22 h, 20 μM [1] [%]	viability at 22 h, 40 μM [1] [%]	viability at 22 h, 80 μM [1] [%]	NO production, Average ([2]; 20 μM for 2 h) [µM]	NO production, Average ([2]; 40 μM for 2 h) [µM]	NO production, Average (μM) ([2]; 80 μM for 2 h)	Anti-inflammatory effect (inhibition of NO secretion), in words [2]	NO production, Average ([2]; 80 μM for 2 h) [µM]	NO production, Average (μM) ([2]; 40 μM for 2 h)
COc1ccccc1C1C(C#N)=C(N)Oc2c1c(=O)oc1ccccc21 (centres unmarked) [Coumarin derivative 15]	109	112	114	26.33	22.71	19.37 ** μM	showed anti-inflammatory effects		
N#CC1=C(N)Oc2c(c(=O)oc3ccccc23)C1c1ccccc1F (centres unmarked) [Coumarin derivative 1]	90.4	96	109	29.50	29.82		almost no anti-inflammatory effect	28.71	
Cc1ccccc1C1C(C#N)=C(N)Oc2c1c(=O)oc1ccccc21 (centres unmarked) [Coumarin derivative 9]	118	111	112	23.27	24.10		almost no anti-inflammatory effect	21.32	
N#CC1=C(N)Oc2c(c(=O)oc3ccccc23)C1c1ccc(Cl)cc1 (centres unmarked) [Coumarin derivative 8]	103	107	93.5	32.19	24.11	10.64 *** μM			
N#CC1=C(N)Oc2c(c(=O)oc3ccccc23)C1c1ccccc1Br (centres unmarked) [Coumarin derivative 18]	129	130	138	28.03	27.87		almost no anti-inflammatory effect	25.95	
N#CC1=C(N)Oc2c(c(=O)oc3ccccc23)C1c1cccc(OC(F)(F)F)c1 (centres unmarked) [Coumarin derivative 13]	114	118	112	27.17	26.33		almost no anti-inflammatory effects	24.94	
N#CC1=C(N)Oc2c(c(=O)oc3ccccc23)C1c1ccccc1C(F)(F)F (centres unmarked) [Coumarin derivative 4]	79.9	91.2	88.7	15.71		18.09 *** μM			17.45 *** μM
COc1ccc(C2C(C#N)=C(N)Oc3c2c(=O)oc2ccccc32)cc1 (centres unmarked) [Coumarin derivative 17]	122	122	137	28.68	26.11	20.16 ** μM	weak anti-inflammatory effects at high concentrations		
N#CC1=C(N)Oc2c(c(=O)oc3ccccc23)C1c1cccc(C(F)(F)F)c1 (centres unmarked) [Coumarin derivative 5]	86.8	110	113	30.77	28.71		almost no anti-inflammatory effects	25.38	
N#CC1=C(N)Oc2c(c(=O)oc3ccccc23)C1c1ccc(Br)cc1 (centres unmarked) [Coumarin derivative 20]	114	124	135	31.89	30.12	19.52 ** μM			
N#CC1=C(N)Oc2c(c(=O)oc3ccccc23)C1c1ccc(C(F)(F)F)cc1 (centres unmarked) [Coumarin derivative 6]	98.7	111	111	30.92	26.49	16.82 *** μM	weak anti-inflammatory effects at high concentrations		
